Some results are limits rather than exact numbers.

For this test, the target named is T1, hGPR40 (Homo sapiens, UniProt O14842).
T1 construct: 3x FLAG; expressed in transfected cells
T1 sequence (O14842 whole entry): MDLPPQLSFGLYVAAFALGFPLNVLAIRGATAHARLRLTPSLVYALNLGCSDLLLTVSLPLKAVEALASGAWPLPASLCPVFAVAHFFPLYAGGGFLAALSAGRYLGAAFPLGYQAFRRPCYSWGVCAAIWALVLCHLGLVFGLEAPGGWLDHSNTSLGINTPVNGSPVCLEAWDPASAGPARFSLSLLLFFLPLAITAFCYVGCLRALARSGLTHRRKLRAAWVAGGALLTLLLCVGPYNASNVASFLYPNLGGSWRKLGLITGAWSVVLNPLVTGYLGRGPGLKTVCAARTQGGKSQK
In words: FDSS-Based Intracellular Calcium Assay. Type of test: cell-based. As to conditions: cells expressing GPR40, intracellular Ca2+ response. In outline: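 Flag-tagged GPR40-expressing cells plated overnight in serum-free, phenol red-free DMEM. Compounds added from DMSO stocks, diluted in assay buffer and added as 3x solution. Intracellular Ca^2+ flux read by fluorescence on an FDSS reader.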
With `COc1ccc(F)c(-c2ccc(Cc3ccc(N4N=C(C(F)(F)F)C(C)(C)C4CC(=O)O)cc3)c(C)c2)c1` (single isomer, unassigned) [Example 50, Isomer 2, 2-(1-(4-((2′-fluoro-5′-methoxy-3-methylbiphenyl-4-yl)methyl)phenyl)-4,4-dimethyl-3-(trifluoromethyl)-4,5-dihydro-1H-pyrazol-5-yl)acetic acid], the EC50 is 1340 nM.

On to `COc1ccc(F)c(-c2ccc(Cc3ccc(N4N=C(C(F)(F)F)CC4(C)CC(=O)O)cc3)c(C)c2)c1` (single isomer, unassigned) [Example 51, Isomer 1, 2-(1-(4-((2′-fluoro-5′-methoxy-3-methylbiphenyl-4-yl)methyl)phenyl)-5-methyl-3-(trifluoromethyl)-4,5-dihydro-1H-pyrazol-5-yl)acetic acid], for which the EC50 came out at 1550 nM. With `COc1ccc(F)c(-c2ccc(Cc3ccc(N4N=C(C(F)(F)F)CC4(C)CC(=O)O)cc3)c(C)c2)c1` (single isomer, unassigned) [Example 51, Isomer 2, 2-(1-(4-((2′-fluoro-5′-methoxy-3-methylbiphenyl-4-yl)methyl)phenyl)-5-methyl-3-(trifluoromethyl)-4,5-dihydro-1H-pyrazol-5-yl)acetic acid] the figure was 1490 nM; with `COc1ccc(F)c(-c2ccc(Cc3ccc(N4N=C(C#N)C(C)C4CC(=O)O)cc3)c(C)c2)c1` (single isomer, unassigned) [Example 52, Isomer 1, 2-(3-cyano-1-(4-((2′-fluoro-5′-methoxy-3-methylbiphenyl-4-yl)methyl)phenyl)-4-methyl-4,5-dihydro-1H-pyrazol-5-yl)acetic acid], 1050 nM; with `COc1ccc(F)c(-c2ccc(Cc3ccc(N4N=C(C#N)C(C)C4CC(=O)O)cc3)c(C)c2)c1` (single isomer, unassigned) [Example 52, Isomer 2, 2-(3-cyano-1-(4-((2′-fluoro-5′-methoxy-3-methylbiphenyl-4-yl)methyl)phenyl)-4-methyl-4,5-dihydro-1H-pyrazol-5-yl)acetic acid], 300 nM.

As for `COc1ccc(F)c(-c2ccc(Cc3ccc(N4N=C(C(F)(F)F)C(CO)C4CC(=O)O)cc3)c(C)c2)c1` (single isomer, unassigned) [Example 53, Isomer 1, 2-(1-(4-((2′-fluoro-5′-methoxy-3-methyl-[1,1′-biphenyl]-4-yl)methyl)phenyl)-4-(hydroxymethyl)-3-(trifluoromethyl)-4,5-dihydro-1H-pyrazol-5-yl)acetic acid, trans-diastereomer], the EC50 stood at 170 nM. With `COc1ccc(F)c(-c2ccc(Cc3ccc(N4N=C(C(F)(F)F)C(CO)C4CC(=O)O)cc3)c(C)c2)c1` (single isomer, unassigned) [Example 53, Isomer 2, 2-(1-(4-((2′-fluoro-5′-methoxy-3-methyl-[1,1′-biphenyl]-4-yl)methyl)phenyl)-4-(hydroxymethyl)-3-(trifluoromethyl)-4,5-dihydro-1H-pyrazol-5-yl)acetic acid, trans-diastereomer], the EC50 worked out at 1100 nM. Take `COc1ccc(F)c(-c2ccc(Cc3ccc(N4N=C(C(F)(F)F)C(CC#N)C4CC(=O)O)cc3)c(C)c2)c1` (single isomer, unassigned) [Example 54, Isomer 2, 2-(4-(cyanomethyl)-1-(4-((2′-fluoro-5′-methoxy-3-methyl-[1,1′-biphenyl]-4-yl)methyl)phenyl)-3-(trifluoromethyl)-4,5-dihydro-1H-pyrazol-5-yl)acetic acid, trans-diastereomer]: the EC50 turned out to be 1100 nM. The same measure for `COc1ccc(F)c(-c2ccc(Cc3ccc(N4N=C(C(F)(F)F)C(CC#N)C4CC(=O)O)cc3)c(C)c2)c1` (single isomer, unassigned) [Example 54, isomer 1, 2-(4-(cyanomethyl)-1-(4-((2′-fluoro-5′-methoxy-3-methyl-[1,1′-biphenyl]-4-yl)methyl)phenyl)-3-(trifluoromethyl)-4,5-dihydro-1H-pyrazol-5-yl)acetic acid, trans-diastereomer]: 380 nM; for `COc1ccc(F)c(-c2ccc(Cc3ccc(N4N=C(c5ccn(C)n5)C(C)C4CC(=O)O)cc3)c(C)c2)c1` (single isomer, unassigned) [Example 55, Isomer 1, 2-((1-(4-((2′-fluoro-5′-methoxy-3-methyl-[1,1′-biphenyl]-4-yl)methyl)phenyl)-1′,4-dimethyl-4,5-dihydro-1H,1′H-[3,3′-bipyrazol]-5-yl)acetic acid, trans-diastereomer]: 5630 nM; for `COc1ccc(F)c(-c2ccc(Cc3ccc(N4N=C(c5ccn(C)n5)C(C)C4CC(=O)O)cc3)c(C)c2)c1` (single isomer, unassigned) [Example 55, Isomer 2, 2-((1-(4-((2′-fluoro-5′-methoxy-3-methyl-[1,1′-biphenyl]-4-yl)methyl)phenyl)-1′,4-dimethyl-4,5-dihydro-1H,1′H-[3,3′-bipyrazol]-5-yl)acetic acid, trans-diastereomer]: 230 nM. For the compound `COc1ccc(F)c(-c2ccc(Cc3ccc(N4N=C(c5ccccc5)C(C)C4CC(=O)O)cc3)c(C)c2)c1` (single isomer, unassigned) [Example 59, Isomer 1, 2-(1-(4-((2′-fluoro-5′-methoxy-3-methyl-[1,1′-biphenyl]-4-yl)methyl)phenyl)-4-methyl-3-phenyl-4,5-dihydro-1H-pyrazol-5-yl)acetic acid], the EC50 is 6470 nM.

Take `COc1ccc(F)c(-c2ccc(Cc3ccc(N4N=C(c5ccccc5)C(C)C4CC(=O)O)cc3)c(C)c2)c1` (single isomer, unassigned) [Example 59, Isomer 2, 2-(1-(4-((2′-fluoro-5′-methoxy-3-methyl-[1,1′-biphenyl]-4-yl)methyl)phenyl)-4-methyl-3-phenyl-4,5-dihydro-1H-pyrazol-5-yl)acetic acid]: the EC50 is 6 nM. Turning to `COc1ccc(F)c(-c2ccc(Cc3ccc(N4N=C(C(F)(F)F)C(C)C4CC(=O)O)cc3)c(Cl)c2)c1` (single isomer, unassigned) [Example 60, Isomer 1, 22-(1-(4-((3-chloro-2′-fluoro-5′-methoxy-[1,1′-biphenyl]-4-yl)methyl)phenyl)-4-methyl-3-(trifluoromethyl)-4,5-dihydro-1H-pyrazol-5-yl)acetic acid], the EC50 stood at 970 nM. Take `COc1ccc(F)c(-c2ccc(Cc3ccc(N4N=C(C(F)(F)F)C(C)C4CC(=O)O)cc3)c(Cl)c2)c1` (single isomer, unassigned) [Example 60, Isomer 2, 22-(1-(4-((3-chloro-2′-fluoro-5′-methoxy-[1,1′-biphenyl]-4-yl)methyl)phenyl)-4-methyl-3-(trifluoromethyl)-4,5-dihydro-1H-pyrazol-5-yl)acetic acid]: the EC50 was 40 nM. With `COc1ccc(F)c(-c2ccc(Cc3ccc(N4N=C(c5ncccn5)C(C)C4CC(=O)O)cc3)c(C)c2)c1` (single isomer, unassigned) [Example 61 isomer 1] the figure was more than 16600 nM. The same measure for `COc1ccc(F)c(-c2ccc(Cc3ccc(N4N=C(c5ncccn5)C(C)C4CC(=O)O)cc3)c(C)c2)c1` (single isomer, unassigned) [Example 61, isomer 2]: 460 nM; for `COc1ccc(F)c(-c2ccc(Cc3ccc(N4N=C(c5ccccn5)C(C)C4CC(=O)O)cc3)c(C)c2)c1` (single isomer, unassigned) [Example 62, isomer 1, 2-(1-(4-((2′-fluoro-5′-methoxy-3-methylbiphenyl-4-yl)methyl)phenyl)-4-methyl-3-(pyridin-2-yl)-4,5-dihydro-1H-pyrazol-5-yl)acetic acid]: 1600 nM; for `COc1ccc(F)c(-c2ncc(Cc3ccc(N4N=C(C(F)(F)F)[C@@H](C)[C@@H]4CC(=O)O)cc3)c(C)n2)c1` (single isomer, unassigned) [Example 63]: 700 nM. With `COc1ccc(F)c(-c2ccc(Cc3ccc(N4N=C(c5ccc(Cl)cc5)[C@@H](C)[C@@H]4CC(=O)O)cc3)c(C)c2)c1` (single isomer, unassigned) [Example 66, Isomer 1] the figure was 13 nM; with `COc1ccc(F)c(-c2ccc(Cc3ccc(N4N=C(c5ccc(Cl)cc5)[C@@H](C)[C@@H]4CC(=O)O)cc3)c(C)c2)c1` (single isomer, unassigned) [Example 66, isomer 2], 510 nM. Take `COc1ccc(F)c(-c2ccc(Cc3ccc(N4N=C(c5ccc(F)cc5)[C@@H](C)[C@@H]4CC(=O)O)cc3)c(C)c2)c1` (single isomer, unassigned) [Example 67, isomer 1]: the EC50 is 9 nM. With `COc1ccc(F)c(-c2ccc(Cc3ccc(N4N=C(c5ccc(F)cc5)[C@@H](C)[C@@H]4CC(=O)O)cc3)c(C)c2)c1` (single isomer, unassigned) [Example 67, isomer 2], the EC50 came to 800 nM. With `COc1ccc(F)c(-c2ccc(Cc3ccc(N4N=C(c5cccc(Cl)c5)[C@@H](C)[C@@H]4CC(=O)O)cc3)c(C)c2)c1` (single isomer, unassigned) [Example 68, isomer 1] the figure was 15 nM; with `COc1ccc(F)c(-c2ccc(Cc3ccc(N4N=C(c5cccc(Cl)c5)[C@@H](C)[C@@H]4CC(=O)O)cc3)c(C)c2)c1` (single isomer, unassigned) [Example 68, isomer 2], 8460 nM.

Take `COc1ccc(F)c(-c2ccc(Cc3ccc(N4N=C(c5cc(C)on5)[C@@H](C)[C@@H]4CC(=O)O)cc3)c(C)c2)c1` (single isomer, unassigned) [Example 69, isomer 1]: the EC50 was 57 nM. The same measure for `COc1ccc(F)c(-c2ccc(Cc3ccc(N4N=C(c5cc(C)on5)[C@@H](C)[C@@H]4CC(=O)O)cc3)c(C)c2)c1` (single isomer, unassigned) [Example 69, isomer 2]: 2560 nM. The same measure for `COc1ccc(F)c(-c2ccc(Cc3ccc(N4N=C(c5ccccn5)C(C)C4CC(=O)O)cc3)c(C)c2)c1` (single isomer, unassigned) [example 62, isomer 2, 2-(1-(4-((2′-fluoro-5′-methoxy-3-methylbiphenyl-4-yl)methyl)phenyl)-4-methyl-3-(pyridin-2-yl)-4,5-dihydro-1H-pyrazol-5-yl)acetic acid]: 63 nM.

The values are drawn from patent US9656963B2 (BRISTOL-MYERS SQUIBB COMPANY, priority 2012, dated 2017).
